Reference: patent publication US9914730B2, “Azaquinazoline inhibitors of Atypical protein Kinase C” (Ignyta, Inc., priority 2012, dated 2018)

molecular target: T1, full-length human PKCι (Homo sapiens, UniProt P41743); assay: PKCι IC50 IMAP assay, full-length PKCι at 150 μM ATP; type: biochemical; conditions: read-out: IC50 in IMAP assay against full length PKCi at 150 μM ATP
T1 construct: Recombinant, full-length human PKCι expressed in Sf21 insect cells is also commercially available; purchased; host or cells: Sf21 insect cells
T1 sequence (P41743 1-596): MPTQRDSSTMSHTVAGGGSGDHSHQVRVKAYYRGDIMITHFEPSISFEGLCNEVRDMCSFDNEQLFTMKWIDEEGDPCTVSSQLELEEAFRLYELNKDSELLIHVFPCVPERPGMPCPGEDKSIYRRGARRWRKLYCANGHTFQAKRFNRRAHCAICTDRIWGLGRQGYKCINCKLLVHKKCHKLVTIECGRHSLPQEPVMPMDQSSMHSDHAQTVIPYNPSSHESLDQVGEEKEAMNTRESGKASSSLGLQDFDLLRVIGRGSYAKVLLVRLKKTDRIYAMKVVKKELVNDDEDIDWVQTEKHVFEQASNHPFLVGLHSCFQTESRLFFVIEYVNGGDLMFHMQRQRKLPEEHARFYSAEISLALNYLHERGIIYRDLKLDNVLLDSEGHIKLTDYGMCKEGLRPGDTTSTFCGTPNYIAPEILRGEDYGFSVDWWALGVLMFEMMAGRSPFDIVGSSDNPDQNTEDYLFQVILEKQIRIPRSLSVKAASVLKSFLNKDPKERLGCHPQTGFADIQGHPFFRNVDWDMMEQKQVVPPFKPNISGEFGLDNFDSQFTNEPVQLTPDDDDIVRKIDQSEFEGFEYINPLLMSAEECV
In short: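 IMAP fluorescence polarisation (ex 485/em 530 nm) read-out; % inhibition set from no-compound (0%) and no-enzyme (100%) controls, IC50 from dose-response curve fit. Sf21-expressed full-length enzyme ~15 pM, 100 nM FAM peptide, ATP 150 μM (5× KM^APP), 60 min at RT.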

| SMILES | IC50 |
| --- | --- |
| Fc1cccc(F)c1Nc1cc(-c2nc(NC[C@@H]3CCCN3)c3c(C4CC4)cncc3n2)ccn1 [Example 698, {5-Cyclopropyl-2-[2-(2,6-difluoro-phenylamino)-pyridin-4-yl]-pyrido[3,4-d]pyrimidin-4-yl}-(S)-1-pyrrolidin-2-ylmethyl-amine] | 100 to 1000 nM |
| Fc1ccc(Nc2cc(-c3nc(N4CCCNCC4)c4c(C5CC5)cncc4n3)ccn2)cc1 [Example 699, [4-(5-Cyclopropyl-4-[1,4]diazepan-1-yl-pyrido[3,4-d]pyrimidin-2-yl)-pyridin-2-yl]-(4-fluoro-phenyl)-amine] | < 100 nM |
| c1cc(-c2nc(N3CCNCC3)c3c(C4CC4)cncc3n2)cc(NC23CC(C2)C3)n1 [Example 700, Bicyclo[1.1.1]pent-1-yl-[4-(5-cyclopropyl-4-piperazin-1-yl-pyrido[3,4-d]pyrimidin-2-yl)-pyridin-2-yl]-amine] | < 100 nM |
| Fc1c(-c2nc(N3CCNCC3)c3c(C4CC4)cncc3n2)ccnc1Nc1ccccc1 [Example 701, [4-(5-Cyclopropyl-4-piperazin-1-yl-pyrido[3,4-d]pyrimidin-2-yl)-3-fluoro-pyridin-2-yl]-phenyl-amine] | 10000 to 40000 nM |
| Fc1cccc(F)c1Nc1cc(-c2nc(N3CCCNCC3)c3c(C4CC4)cncc3n2)ccn1 [Example 702, [4-(5-Cyclopropyl-4-[1,4]diazepan-1-yl-pyrido[3,4-d]pyrimidin-2-yl)-pyridin-2-yl]-(2,6-difluoro-phenyl)-amine] | 100 to 1000 nM |
| F[C@H]1C[C@@H](Nc2cc(-c3nc(N4CCNCC4)c4c(C5CC5)cncc4n3)ccn2)C1 [Example 703, (+/−)cis-[4-(5-Cyclopropyl-4-piperazin-1-yl-pyrido[3,4-d]pyrimidin-2-yl)-pyridin-2-yl]-(3-fluoro-cyclobutyl)-amine] | < 100 nM |
| Fc1cnc(Nc2cc(-c3nc(N4CCNCC4)c4c(C5CC5)cncc4n3)ccn2)c(F)c1 [Example 704, [4-(5-Cyclopropyl-4-piperazin-1-yl-pyrido[3,4-d]pyrimidin-2-yl)-pyridin-2-yl]-(3,5-difluoro-pyridin-2-yl)-amine] | < 100 nM |
| Fc1cncc(F)c1Nc1cc(-c2nc(N3CCNCC3)c3c(C4CC4)cncc3n2)ccn1 [Example 705, [4-(5-Cyclopropyl-4-piperazin-1-yl-pyrido[3,4-d]pyrimidin-2-yl)-pyridin-2-yl]-(3,5-difluoro-pyridin-4-yl)-amine] | < 100 nM |
| FC(F)(F)C(Nc1cc(-c2nc(N3CCNCC3)c3c(C4CC4)cncc3n2)ccn1)c1ccccc1 (stereo not drawn) [Example 706, [4-(5-Cyclopropyl-4-piperazin-1-yl-pyrido[3,4-d]pyrimidin-2-yl)-pyridin-2-yl]-(2,2,2-trifluoro-1-phenyl-ethyl)-amine] | 100 to 1000 nM |
| CNC(=O)C1CCCN(c2nc(-c3ccnc(Nc4c(F)cccc4F)c3)nc3cncc(C4CC4)c23)C1 (stereo not drawn) [Example 707, 1-{5-Cyclopropyl-2-[2-(2,6-difluoro-phenylamino)-pyridin-4-yl]-pyrido[3,4-d]pyrimidin-4-yl}-piperidine-3-carboxylic acid methylamide] | 10000 to 40000 nM |
| NC1CCN(c2nc(-c3ccnc(Nc4c(F)cccc4F)c3)nc3cncc(C4CC4)c23)C1 (stereo not drawn) [Example 708, {4-[4-(3-Amino-pyrrolidin-1-yl)-5-cyclopropyl-pyrido[3,4-d]pyrimidin-2-yl]-pyridin-2-yl}-(2,6-difluoro-phenyl)-amine] | 100 to 1000 nM |
| O=C(O)Cc1ccc(Nc2cc(-c3nc(N4CCNCC4)c4c(C5CC5)cncc4n3)ccn2)cc1 [Example 709, {4-[4-(5-Cyclopropyl-4-piperazin-1-yl-pyrido[3,4-d]pyrimidin-2-yl)-pyridin-2-ylamino]-phenyl}-acetic acid] | 100 to 1000 nM |
| CN1CCN(c2cccc(Nc3cc(-c4nc(N5CCCCC5)c5c(C6CC6)cncc5n4)ccn3)c2)CC1 [Example 710] | 100 to 1000 nM |
| N#Cc1cccc(Nc2cc(-c3nc(N4CC[C@H](O)[C@H](O)C4)c4c(C5CC5)cncc4n3)ccn2)c1 [Example 711, 3-{4-[5-Cyclopropyl-4-((3R,4S)-3,4-dihydroxy-piperidin-1-yl)-pyrido[3,4-d]pyrimidin-2-yl]-pyridin-2-ylamino}-benzonitrile] | 100 to 1000 nM |
| c1ccc2c(c1)OCCC2Nc1cc(-c2nc(N3CCNCC3)c3c(C4CC4)cncc3n2)ccn1 (stereo not drawn) [Example 712, Chroman-4-yl-[4-(5-cyclopropyl-4-piperazin-1-yl-pyrido[3,4-d]pyrimidin-2-yl)-pyridin-2-yl]-amine] | < 100 nM |
| CC(=O)NC1CCN(c2nc(-c3ccnc(Nc4c(F)cccc4F)c3)nc3cncc(C4CC4)c23)C1 (stereo not drawn) [Example 713, N-(1-{5-Cyclopropyl-2-[2-(2,6-difluoro-phenylamino)-pyridin-4-yl]-pyrido[3,4-d]pyrimidin-4-yl}-pyrrolidin-3-yl)-acetamide] | 100 to 1000 nM |

Now from value to compound:

| IC50 | SMILES |
| --- | --- |
| < 100 nM | CC(C)c1ccc(Nc2cc(-c3nc(N4CCNCC4)c4c(C5CC5)cncc4n3)ccn2)c(F)c1 [Example 714, [4-(5-Cyclopropyl-4-piperazin-1-yl-pyrido[3,4-d]pyrimidin-2-yl)-pyridin-2-yl]-(2-fluoro-4-isopropyl-phenyl)-amine] |
| < 100 nM | CCc1ccc(F)c(Nc2cc(-c3nc(N4CCNCC4)c4c(C5CC5)cncc4n3)ccn2)c1 [Example 715, [4-(5-Cyclopropyl-4-piperazin-1-yl-pyrido[3,4-d]pyrimidin-2-yl)-pyridin-2-yl]-(5-ethyl-2-fluoro-phenyl)-amine] |
| < 100 nM | CC(C)c1ccc(F)c(Nc2cc(-c3nc(N4CCNCC4)c4c(C5CC5)cncc4n3)ccn2)c1 [Example 716, [4-(5-Cyclopropyl-4-piperazin-1-yl-pyrido[3,4-d]pyrimidin-2-yl)-pyridin-2-yl]-(2-fluoro-5-isopropyl-phenyl)-amine] |
| < 100 nM | CCc1ccc(Nc2cc(-c3nc(N4CCNCC4)c4c(C5CC5)cncc4n3)ccn2)c(F)c1 [Example 717, [4-(5-Cyclopropyl-4-piperazin-1-yl-pyrido[3,4-d]pyrimidin-2-yl)-pyridin-2-yl]-(4-ethyl-2-fluoro-phenyl)-amine] |
| < 100 nM | CC1(C)CN(c2nc(-c3ccnc(Nc4c(F)cccc4F)c3)nc3cncc(C4CC4)c23)CCN1 [Example 718, {4-[5-Cyclopropyl-4-(3,3-dimethyl-piperazin-1-yl)-pyrido[3,4-d]pyrimidin-2-yl]-pyridin-2-yl}-(2,6-difluoro-phenyl)-amine] |
| < 100 nM | CC1(C)CN(c2nc(-c3ccnc(Nc4ccc(F)cc4)c3)nc3cncc(C4CC4)c23)CCN1 [Example 719] |
| < 100 nM | CN1CCN(c2cccc(Nc3cc(-c4nc(N5CCC[C@@H](O)C5)c5c(C6CC6)cncc5n4)ccn3)c2)CC1 [Example 720, (R)-1-(5-Cyclopropyl-2-{2-[3-(4-methyl-piperazin-1-yl)-phenylamino]-pyridin-4-yl}-pyrido[3,4-d]pyrimidin-4-yl)-piperidin-3-ol] |
| < 100 nM | CN1CCN(c2cccc(Nc3cc(-c4nc(N5CC[C@@H](CO)C5)c5c(C6CC6)cncc5n4)ccn3)c2)CC1 [Example 721, [(R)-1-(5-Cyclopropyl-2-{2-[3-(4-methyl-piperazin-1-yl)-phenylamino]-pyridin-4-yl}-pyrido[3,4-d]pyrimidin-4-yl)-pyrrolidin-3-yl]-methanol] |
